Test systems include ACHN; DU-145; EKVX; HOP-62; KM12; Malme-3M; NCI-H23; OVCAR-3; OVCAR-4; RXF 393; SF-539; SK-MEL-5; SK-OV-3; SN12C; SNB-19; SR; T47D; U-251; UACC-62.
Common to all, as to assay: NCI anticancer screen, dose series, 48 h

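Exposure lasted 48 hours, with cells grown in 96-well plates and compounds tested at five concentrations. Here, GI50 denotes the concentration required for 50% inhibition of growth.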 Activity calls are given as the source filed them. No stated cut-off is given here; in the data, active = GI50 up to about 1.1 µM and inactive = higher. Where a SMILES comes first, the peptide text is derived from it. The star is where a group is joined. Fmoc = O=C(OCC1c2ccccc2-c2ccccc21)*; Boc = CC(C)(C)OC(=O)* Bounds are passed on as bounds.

Regarding `CSc1cnc2ccccc2c1SC1CN(Cc2ccccc2)c2ccccc2C1=O` (configuration not stated), the GI50 in the experiment with ACHN is > 100 µM (inactive); in the experiment with DU-145 it was > 100 µM (inactive); with EKVX, > 100 µM (inactive); in the experiment with HOP-62, 32.1 µM (inactive); in the experiment on KM12, > 100 µM (inactive); in the experiment with Malme-3M, > 100 µM (inactive). Moreover, the GI50 in the experiment on NCI-H23, in the experiment on OVCAR-3, in the experiment with OVCAR-4, with RXF 393, with SF-539 and with SK-MEL-5 was > 100 µM (inactive) in each case. The GI50 in the experiment with SK-OV-3, in the experiment with SN12C, in the experiment with SNB-19, in the experiment on SR, in the experiment with T47D and with U-251 was > 100 µM (inactive) throughout. In the experiment on UACC-62, the GI50 was > 100 µM (inactive).

On to `CN(CCCNC(=O)c1nn(C)c2c1Cc1ccccc1-2)CCCNC(=O)c1nn(C)c2c1Cc1ccccc1-2`, for which the GI50 is 16.7 µM (inactive) in the experiment on ACHN; 16.9 µM (inactive) in the experiment with DU-145; 19.2 µM (inactive) in the experiment with EKVX; 10.8 µM (inactive) with HOP-62; 16.2 µM (inactive) with KM12; 20.5 µM (inactive) with Malme-3M. Also, the GI50 in the experiment on NCI-H23 was 21.9 µM (inactive); with OVCAR-3, 16.1 µM (inactive); in the experiment on OVCAR-4, 16.3 µM (inactive); in the experiment on RXF 393, 13.9 µM (inactive); with SF-539, 16.4 µM (inactive); in the experiment on SK-MEL-5, 13.5 µM (inactive). Besides, the GI50 was 16 µM (inactive) in the experiment with SK-OV-3; 16.5 µM (inactive) in the experiment with SN12C; 9.53 µM (inactive) in the experiment with SNB-19; 2.99 µM (inactive) with SR; 22.5 µM (inactive) in the experiment on T47D; 12.5 µM (inactive) in the experiment with U-251. For the same compound, the GI50 in the experiment on UACC-62 is 19.4 µM (inactive).

`CC(C)(C)OC(=O)NCCCCC(NC(=O)OCC1c2ccccc2-c2ccccc21)C(=O)N1CCCC1C(=O)NCC(N)=O` (stereo not drawn) (Fmoc-Lys(Boc)-Pro-Gly-NH2; configuration not given here): the GI50 in the experiment on ACHN is 17.9 µM (inactive); in the experiment with DU-145, > 100 µM (inactive); in the experiment with EKVX, 76.2 µM (inactive); with HOP-62 it was 89.1 µM (inactive); in the experiment on KM12, 20.7 µM (inactive); in the experiment on Malme-3M, 18.3 µM (inactive). Moreover, the GI50 was 94.8 µM (inactive) in the experiment with NCI-H23; 45.1 µM (inactive) with OVCAR-3; 23.2 µM (inactive) with OVCAR-4; 61 µM (inactive) in the experiment with RXF 393; 88.1 µM (inactive) in the experiment with SF-539; 80.4 µM (inactive) in the experiment with SK-MEL-5. Further, the GI50 with SK-OV-3 is 2.17 µM (inactive); in the experiment with SN12C, 16.2 µM (inactive); with SNB-19 it was > 100 µM (inactive); in the experiment with SR it was 21.1 µM (inactive); with T47D, 24.7 µM (inactive); in the experiment on U-251, 18.5 µM (inactive). Also, the GI50 in the experiment on UACC-62 was 46 µM (inactive).

Take `Cc1ccc(-c2n[nH]c(=O)n2N2C(=O)C=CC2=O)cc1`: the GI50 with DU-145, in the experiment on EKVX, with HOP-62, with Malme-3M, in the experiment with NCI-H23 and with OVCAR-3 was > 100 µM (inactive) throughout. Moreover, the GI50 with OVCAR-4, in the experiment with RXF 393, in the experiment with SF-539, with SK-MEL-5, with SK-OV-3 and in the experiment on SN12C was > 100 µM (inactive) throughout. In addition, the GI50 in the experiment on SR, in the experiment on T47D, with U-251 and in the experiment on UACC-62 was > 100 µM (inactive) each time.

As to `CCCCCCCCCC(=O)N[C@@H](c1ccco1)[C@@H](O)C(=O)O[C@H]1C[C@@]2(O)[C@@H](OC(=O)c3ccccc3)[C@@H]3[C@]4(OC(C)=O)CO[C@@H]4C[C@H](O)[C@@]3(C)C(=O)[C@H](OC(C)=O)C(=C1C)C2(C)C`, the GI50 in the experiment with ACHN was 2.92 µM (inactive); in the experiment with DU-145, 0.106 µM (active); with EKVX, 10 µM (inactive); with HOP-62 it was 0.0593 µM (active); in the experiment on KM12, 0.00879 µM (active); with Malme-3M, 0.0269 µM (active). For the same compound, the GI50 is 0.0385 µM (active) with NCI-H23; 0.00914 µM (active) in the experiment on OVCAR-3; 1.34 µM (inactive) in the experiment on OVCAR-4; 0.043 µM (active) in the experiment with RXF 393; 0.0228 µM (active) in the experiment with SF-539; 0.0154 µM (active) with SK-MEL-5. The GI50 in the experiment on SK-OV-3 was 0.0269 µM (active); in the experiment on SN12C, 0.0407 µM (active); in the experiment with SNB-19, 0.0442 µM (active); in the experiment with SR, 0.0101 µM (active); in the experiment with T47D, 0.178 µM (active); in the experiment with U-251, < 0.0241 µM (active). Moreover, the GI50 with UACC-62 is 0.0467 µM (active).

Turning to `CCC1(O)C(=O)OCc2c1cc1n(c2=O)Cc2cc3ccccc3nc2-1` (configuration not stated), the GI50 with ACHN was 0.153 µM (active); with DU-145, 0.018 µM (active); in the experiment with EKVX, 0.0869 µM (active); with HOP-62, < 0.0149 µM (active); in the experiment with KM12, 0.221 µM (active); in the experiment with Malme-3M, 0.431 µM (active). In addition, the GI50 with NCI-H23 is < 0.0188 µM (active); in the experiment on OVCAR-3, 0.308 µM (active); in the experiment with OVCAR-4 it was 0.504 µM (active); in the experiment on RXF 393, 0.073 µM (active); in the experiment on SF-539, 0.0157 µM (active); with SK-MEL-5, 0.0473 µM (active). Besides, the GI50 in the experiment on SK-OV-3 is 0.0312 µM (active); in the experiment with SN12C, 0.0703 µM (active); in the experiment with SNB-19, 0.0143 µM (active); with SR, < 0.01 µM (active); in the experiment on T47D it was 0.0237 µM (active); with U-251 it was 0.0261 µM (active). In addition, the GI50 in the experiment on UACC-62 is 0.0128 µM (active).

As to `CC(C)(C)OC(=O)CN1CCNCCNCC1`, the GI50 with ACHN, in the experiment on DU-145, in the experiment on EKVX, in the experiment on HOP-62, with KM12 and in the experiment with Malme-3M was > 100 µM (inactive) throughout. Further, the GI50 in the experiment on NCI-H23, in the experiment on OVCAR-3, in the experiment on OVCAR-4, in the experiment with RXF 393, in the experiment on SF-539 and with SK-MEL-5 was > 100 µM (inactive) each time. For the same compound, the GI50 in the experiment on SK-OV-3, with SN12C, in the experiment on SNB-19, in the experiment with SR, in the experiment with T47D and with U-251 was > 100 µM (inactive) throughout. For the same compound, the GI50 in the experiment with UACC-62 is > 100 µM (inactive).

Consider `CC[N+]1(C)CCC(O)(c2ccc(Cl)c(Cl)c2)C(C(=O)c2ccc(Cl)c(Cl)c2)C1` (configuration not stated), for which the GI50 in the experiment with ACHN, in the experiment on DU-145, with EKVX, in the experiment on HOP-62, in the experiment with KM12 and in the experiment on Malme-3M was > 10 µM (inactive) each time. In addition, the GI50 with NCI-H23, with OVCAR-3, with OVCAR-4, in the experiment with RXF 393, in the experiment on SF-539 and in the experiment on SK-MEL-5 was > 10 µM (inactive) throughout. For the same compound, the GI50 in the experiment with SK-OV-3, in the experiment with SN12C, in the experiment on SNB-19, in the experiment on SR, with T47D and in the experiment with U-251 was > 10 µM (inactive) throughout.

Consider `COc1ccc(NC(=S)NNC(=O)c2cc(-c3ccccc3)nc3ccccc23)cc1`, for which the GI50 in the experiment with ACHN was 22.1 µM (inactive); with DU-145, 18.1 µM (inactive); with HOP-62, 15.1 µM (inactive); in the experiment with KM12, 16.1 µM (inactive); in the experiment with Malme-3M it was 11.2 µM (inactive); with NCI-H23, 13.6 µM (inactive). Moreover, the GI50 with OVCAR-3 was 12 µM (inactive); with OVCAR-4, 19.3 µM (inactive); in the experiment with RXF 393, 13.9 µM (inactive); in the experiment on SF-539 it was 13.2 µM (inactive); in the experiment with SK-MEL-5 it was 11.4 µM (inactive); in the experiment with SK-OV-3, 0.479 µM (active). The GI50 in the experiment on SN12C was 18.6 µM (inactive); with SNB-19, 23.9 µM (inactive); in the experiment on SR, 2.81 µM (inactive); in the experiment on T47D, 14.9 µM (inactive); with U-251, 15.5 µM (inactive); with UACC-62, 11.5 µM (inactive).

Consider `C=C(C)c1nc(C#N)c(N)o1`, for which the GI50 in the experiment on ACHN, in the experiment with DU-145, in the experiment with EKVX, in the experiment with HOP-62, with KM12 and in the experiment with Malme-3M was > 100 µM (inactive) each time. In addition, the GI50 in the experiment on NCI-H23, in the experiment with OVCAR-3, in the experiment with OVCAR-4, in the experiment on RXF 393, in the experiment with SF-539 and in the experiment with SK-MEL-5 was > 100 µM (inactive) each time. The GI50 in the experiment on SK-OV-3, with SN12C, in the experiment on SNB-19, in the experiment on SR, in the experiment with T47D and with U-251 was > 100 µM (inactive) throughout.

On to `COC(=O)CCN(CCC(=O)OC)C1CC1`, for which the GI50 with ACHN, in the experiment on DU-145, in the experiment with EKVX, in the experiment on HOP-62, with KM12 and in the experiment with Malme-3M was > 100 µM (inactive) in each case. Also, the GI50 in the experiment with NCI-H23, with OVCAR-4, with RXF 393, with SF-539, with SK-MEL-5 and in the experiment on SK-OV-3 was > 100 µM (inactive) throughout. The GI50 with SN12C, with SNB-19, in the experiment with SR, in the experiment with T47D, in the experiment with U-251 and in the experiment on UACC-62 was > 100 µM (inactive) each time.

Values taken from ChEMBL document CHEMBL1201862, “PubChem BioAssay data set” (2004).
